Assays:
[1] = Compound stability in rat liver microsomes; assay type: in vitro ADME; conditions: for half-life at 5 μM / CLint scaled at 5 μM: pH 7.4; for CLint scaled at 5 μM: rat liver microsomes, in vivo CLint extrapolated
Protocol: Human or rat liver microsomes incubations were conducted in duplicate in polypropylene tubes. The typical incubation mixtures consisted of human or rat liver microsomes (0.5 mg protein/mL), compounds of interest (5 μM) and NADPH (1.0 mM) in a total volume of 200 μL potassium phosphate buffer (PBS, 100 mM, pH=7.4). Compounds were dissolved in DMSO and diluted with PBS such that the final concentration of DMSO was 0.05%. The enzymatic reactions were commenced with the addition of protein after a 3-min preincubation and incubated in a water bath open to the air at 37° C. Reactions were terminated at various time points (0, 5, 10, 15, 30, 60 min) by adding equal volume of ice-cold acetonitrile. The samples were stored at −80° C. until LC/MS/MS assays.
The concentrations of compounds in the incubation mixtures of human or rat liver microsomes were determined by a LC/MS/MS method. The ranges of the linearity in the concentration range were determined for each tested compounds.
A parallel incubation was performed using denatured microsomes as the negative control, and reactions were terminated at various time points (0, 15, 60 min) after incubation at 37° C.
Dextromethorphan (70 μM) was selected as the positive control, and reactions were terminated at various time points (0, 5, 10, 15, 30, 60 min) after incubation at 37° C. Both positive and negative control samples were included in each assay to ensure the integrity of the microsomal incubation system.
The concentrations of compounds in human or rat liver microsome incubations were plotted as a percentage of the relevant zero time point control for each reaction. The in vivo CLint were extrapolated (ref.: Naritomi Y, Terashita S, Kimura S, Suzuki A, Kagayama A, Sugiyama Y. “Prediction of human hepatic clearance from in vivo animal experiments and in vitro metabolic studies with liver microsomes from animals and humans”, Drug Metabolism and Disposition, 2001, 29, 1316-1324).

[2] = Pharmacokinetic profiles in mice; assay type: in vivo; conditions: Mouse; for F: iv dose 1 mg/kg, oral dose generally 5 or 10 mg/kg; for clearance / AUC(0-t) / half-life / Vd: iv dosing, 1 mg/kg; for AUC(0-t) / half-life / Vd: plasma; for Vd: read-out: Vss
Protocol: (§1) The compounds disclosed herein are assessed in pharmacokinetic studies in mice, rats, dogs or monkeys. The compounds are administered as a water solution, 2% HPMC+1% TWEEN®80 in water solution, 5% DMSO+5% solutol in saline, 4% MC suspension or capsule. For the intravenous administration, the animals are generally given at 1 or 2 mg/kg dose. For the oral (p.o.) dosing, mice and rats are generally given 5 or 10 mg/kg dose, and dogs and monkeys are generally given 10 mg/kg dose. The blood samples (0.3 mL) are drawn at 0.25, 0.5, 1.0, 2.0, 3.0, 4.0, 6.0, 8.0, 12 and 24 h time points or 0.083, 0.25, 0.5, 1.0, 2.0, 4.0, 6.0, 8.0 and 24 h time points and centrifuged at 3,000 or 4000 rpm for 2 to 10 min. The plasma solutions are collected and stored at −20° C. or −70° C. until analyzed by LC/MS/MS as described above.

[3] = Pharmacokinetic profiles in dogs; assay type: in vivo; conditions: Dog; for F: iv dose 1 mg/kg, oral dose generally 10 mg/kg; for clearance / AUC(0-t) / half-life / Vd: iv dosing, 1 mg/kg; for AUC(0-t) / half-life / Vd: plasma; for Vd: read-out: Vss
Protocol: as §1

[4] = Pharmacokinetic profiles in monkeys; assay type: in vivo; conditions: Monkey; for F: iv dose 1 mg/kg, oral dose generally 10 mg/kg; for Cl/F / AUC(0-t) / half-life / Vd: iv dosing, 1 mg/kg; for AUC(0-t) / half-life / Vd: plasma; for Vd: read-out: Vss
Protocol: as §1

PI3K p110α/p85α (h) = biological target: T1, PI3K p110α/p85α (h) (Homo sapiens, UniProt P42336); assay: PI3K p110α/p85α (h) non-radioactive (HTRF) assay; assay type: biochemical
T1 construct: purchased Millipore UK Ltd (assays run there as a service)
Protocol: PI3K p110α/p85α (h) [Non-Radioactive Assay]
(§2) PI3K p110α/p85α (h) is incubated in assay buffer containing 10 μM phosphatidylinositol 4,5-bisphosphate and MgATP (concentration as required). The reaction is initiated by the addition of the ATP solution. After incubation for 30 minutes at room temperature, the reaction is stopped by the addition of stop solution containing EDTA and biotinylated phosphatidylinositol-3,4,5-trisphosphate. Finally, detection buffer is added, which contains europium-labelled anti-GST monoclonal antibody, GST-tagged GRP1 PH domain and streptavidin allophycocyanin. The plate is then read in time-resolved fluorescence mode and the homogenous time-resolved fluorescence (HTRF) signal is determined according to the formula HTRF=10000×(Em665 nm/Em620 nm).
(§3) The kinase assays described herein were performed at Millipore UK Ltd, Dundee Technology Park, Dundee DD2 1SW, UK.

PI3K (p110δ/p85α) (h) = biological target: T2, PI3K (p110δ/p85α) (h) (Homo sapiens, UniProt O00329); assay: PI3K (p110δ/p85α) (h) non-radioactive (HTRF) assay; assay type: biochemical
T2 construct: purchased Millipore UK Ltd (assays run there as a service)
Protocol: PI3K (p110δ/p85α) (h) [Non-Radioactive Assay]
as §2, with “(p110δ/p85α)” for “p110α/p85α”, “phosphatidylinositol-4,5-bisphosphate” for “phosphatidylinositol 4,5-bisphosphate”, “MgATP mix.” for “ATP solution.”, “streptavidin-allophycocyanin.” for “streptavidin allophycocyanin.”
as §3

PI3K (p120γ) (h) = biological target: T3, PI3K (p120γ) (h) (Homo sapiens, UniProt P48736); assay: PI3K (p120γ) (h) non-radioactive (HTRF) assay; assay type: biochemical
T3 construct: purchased Millipore UK Ltd (assays run there as a service)
Protocol: PI3K (p120γ) (h) [Non-Radioactive Assay]
as §2, with “(p120γ)” for “p110α/p85α”, “phosphatidylinositol-4,5-bisphosphate” for “phosphatidylinositol 4,5-bisphosphate”, “MgATP mix.” for “ATP solution.”, “streptavidin-allophycocyanin.” for “streptavidin allophycocyanin.”
as §3

[5] = rat liver microsomes 0.5 mg protein/mL, compound 5 μM, NADPH, 37° C.

T3 sequence (P48736 whole entry): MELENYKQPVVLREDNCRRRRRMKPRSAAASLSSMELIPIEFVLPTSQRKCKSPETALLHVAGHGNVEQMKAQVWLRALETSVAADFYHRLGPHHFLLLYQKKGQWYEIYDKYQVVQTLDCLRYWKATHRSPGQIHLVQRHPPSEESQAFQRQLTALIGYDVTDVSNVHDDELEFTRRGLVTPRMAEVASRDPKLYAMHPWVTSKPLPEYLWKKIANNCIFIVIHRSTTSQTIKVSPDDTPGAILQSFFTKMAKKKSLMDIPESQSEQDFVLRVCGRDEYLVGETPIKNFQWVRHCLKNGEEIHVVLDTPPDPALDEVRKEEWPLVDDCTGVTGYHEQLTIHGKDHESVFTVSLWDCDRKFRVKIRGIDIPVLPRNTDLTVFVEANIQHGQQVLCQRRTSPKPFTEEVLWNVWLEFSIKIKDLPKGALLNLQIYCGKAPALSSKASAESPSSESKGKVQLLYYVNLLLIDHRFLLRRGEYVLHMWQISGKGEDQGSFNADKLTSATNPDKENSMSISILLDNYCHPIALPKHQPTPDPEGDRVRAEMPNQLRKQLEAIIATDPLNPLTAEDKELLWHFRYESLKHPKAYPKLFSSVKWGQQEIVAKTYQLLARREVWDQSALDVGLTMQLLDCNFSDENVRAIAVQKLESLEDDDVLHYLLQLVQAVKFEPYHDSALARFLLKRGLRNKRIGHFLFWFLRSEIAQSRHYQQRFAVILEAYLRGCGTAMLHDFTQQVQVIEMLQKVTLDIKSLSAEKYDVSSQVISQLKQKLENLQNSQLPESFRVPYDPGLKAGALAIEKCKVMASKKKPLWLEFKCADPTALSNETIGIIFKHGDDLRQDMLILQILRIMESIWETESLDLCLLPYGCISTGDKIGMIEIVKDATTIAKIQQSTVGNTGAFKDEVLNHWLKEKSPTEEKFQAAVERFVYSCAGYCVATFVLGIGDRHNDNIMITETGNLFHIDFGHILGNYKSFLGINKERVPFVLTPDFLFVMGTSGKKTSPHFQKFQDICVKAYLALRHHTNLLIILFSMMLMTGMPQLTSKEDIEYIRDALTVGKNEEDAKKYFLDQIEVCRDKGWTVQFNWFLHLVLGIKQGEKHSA
T2 sequence (O00329 whole entry): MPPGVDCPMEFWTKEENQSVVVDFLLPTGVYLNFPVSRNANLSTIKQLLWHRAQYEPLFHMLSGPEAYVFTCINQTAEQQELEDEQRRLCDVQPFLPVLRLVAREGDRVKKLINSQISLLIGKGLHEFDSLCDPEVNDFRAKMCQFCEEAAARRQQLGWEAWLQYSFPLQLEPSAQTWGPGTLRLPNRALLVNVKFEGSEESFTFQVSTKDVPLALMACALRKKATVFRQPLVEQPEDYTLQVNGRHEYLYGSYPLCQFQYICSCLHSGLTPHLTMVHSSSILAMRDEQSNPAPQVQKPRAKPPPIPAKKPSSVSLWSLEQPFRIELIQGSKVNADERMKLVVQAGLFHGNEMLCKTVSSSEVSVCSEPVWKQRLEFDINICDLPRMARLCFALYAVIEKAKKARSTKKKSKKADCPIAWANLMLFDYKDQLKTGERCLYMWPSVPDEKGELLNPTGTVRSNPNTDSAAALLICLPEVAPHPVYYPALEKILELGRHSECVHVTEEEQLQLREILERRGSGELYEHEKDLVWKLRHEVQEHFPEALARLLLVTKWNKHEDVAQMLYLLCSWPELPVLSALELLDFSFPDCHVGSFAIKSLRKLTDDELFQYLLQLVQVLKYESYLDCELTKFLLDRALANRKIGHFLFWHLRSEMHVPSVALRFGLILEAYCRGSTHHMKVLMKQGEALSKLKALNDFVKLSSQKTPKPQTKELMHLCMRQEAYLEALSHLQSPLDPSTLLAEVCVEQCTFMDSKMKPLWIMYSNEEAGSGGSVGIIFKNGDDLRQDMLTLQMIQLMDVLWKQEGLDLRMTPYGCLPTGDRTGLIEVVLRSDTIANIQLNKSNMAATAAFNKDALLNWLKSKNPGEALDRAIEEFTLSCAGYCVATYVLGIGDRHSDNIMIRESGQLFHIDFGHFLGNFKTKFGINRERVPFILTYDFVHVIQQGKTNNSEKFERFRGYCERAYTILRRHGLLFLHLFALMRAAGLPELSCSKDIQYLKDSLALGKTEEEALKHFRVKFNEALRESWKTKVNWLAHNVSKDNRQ
T2 sequence (P27986 whole entry partner): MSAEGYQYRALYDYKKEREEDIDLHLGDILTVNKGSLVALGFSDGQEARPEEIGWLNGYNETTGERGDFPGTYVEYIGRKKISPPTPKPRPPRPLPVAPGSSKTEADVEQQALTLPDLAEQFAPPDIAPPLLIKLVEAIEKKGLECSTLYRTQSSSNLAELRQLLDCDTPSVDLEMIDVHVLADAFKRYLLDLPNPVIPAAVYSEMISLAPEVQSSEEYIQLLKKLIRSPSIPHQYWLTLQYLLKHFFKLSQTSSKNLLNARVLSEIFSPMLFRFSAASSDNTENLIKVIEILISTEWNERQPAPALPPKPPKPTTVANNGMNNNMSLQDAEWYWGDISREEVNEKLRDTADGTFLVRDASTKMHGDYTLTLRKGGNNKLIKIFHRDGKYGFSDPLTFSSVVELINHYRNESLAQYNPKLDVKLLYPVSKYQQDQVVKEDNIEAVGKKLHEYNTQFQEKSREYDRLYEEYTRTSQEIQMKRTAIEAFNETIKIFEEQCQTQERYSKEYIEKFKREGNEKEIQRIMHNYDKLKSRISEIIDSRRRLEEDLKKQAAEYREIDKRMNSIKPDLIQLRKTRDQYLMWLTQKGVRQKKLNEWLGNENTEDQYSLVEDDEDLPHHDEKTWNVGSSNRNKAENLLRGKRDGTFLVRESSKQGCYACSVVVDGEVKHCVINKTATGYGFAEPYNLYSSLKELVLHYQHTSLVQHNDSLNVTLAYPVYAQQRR
T1 sequence (P42336 whole entry): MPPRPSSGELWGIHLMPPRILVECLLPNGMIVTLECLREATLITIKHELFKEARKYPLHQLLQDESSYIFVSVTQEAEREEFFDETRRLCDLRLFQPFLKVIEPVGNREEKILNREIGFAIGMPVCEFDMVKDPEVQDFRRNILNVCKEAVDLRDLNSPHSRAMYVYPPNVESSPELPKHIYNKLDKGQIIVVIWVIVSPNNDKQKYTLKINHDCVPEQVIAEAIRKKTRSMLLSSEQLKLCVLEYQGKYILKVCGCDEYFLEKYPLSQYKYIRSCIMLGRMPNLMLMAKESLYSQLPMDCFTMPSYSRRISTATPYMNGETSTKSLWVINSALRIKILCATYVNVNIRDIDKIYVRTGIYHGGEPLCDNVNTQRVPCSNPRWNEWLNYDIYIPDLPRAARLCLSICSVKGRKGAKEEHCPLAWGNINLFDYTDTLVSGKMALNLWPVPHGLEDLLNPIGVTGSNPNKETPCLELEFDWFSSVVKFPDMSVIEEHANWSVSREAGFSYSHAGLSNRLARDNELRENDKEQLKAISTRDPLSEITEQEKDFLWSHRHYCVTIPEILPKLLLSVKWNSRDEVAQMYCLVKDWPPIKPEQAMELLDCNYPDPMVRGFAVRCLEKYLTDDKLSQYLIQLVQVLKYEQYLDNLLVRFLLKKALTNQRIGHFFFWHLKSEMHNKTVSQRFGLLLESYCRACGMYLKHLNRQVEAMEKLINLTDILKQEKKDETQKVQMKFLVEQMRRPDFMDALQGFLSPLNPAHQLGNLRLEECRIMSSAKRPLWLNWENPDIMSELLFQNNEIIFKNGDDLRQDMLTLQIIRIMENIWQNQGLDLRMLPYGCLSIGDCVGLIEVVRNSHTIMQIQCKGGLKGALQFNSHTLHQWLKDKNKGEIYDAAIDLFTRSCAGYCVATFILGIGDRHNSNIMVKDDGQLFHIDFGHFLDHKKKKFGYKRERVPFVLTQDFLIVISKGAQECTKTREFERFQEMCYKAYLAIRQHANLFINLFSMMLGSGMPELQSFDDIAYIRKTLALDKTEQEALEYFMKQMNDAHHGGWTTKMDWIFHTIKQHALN
T1 sequence (P27986 whole entry partner): as the sequence (P27986 whole entry partner) above

Row | Compound | half-life at 5 μM [1, 5] [h] | CLint scaled at 5 μM [1] [mL/min/kg] | F [2] [%] | clearance [2] [mL/min/kg] | AUC(0-t) [2] [ng·h/mL] | half-life [2] [h] | Vd [2] [L/kg] | F [3] [%] | clearance [3] [mL/min/kg] | AUC(0-t) [3] [ng·h/mL] | half-life [3] [h] | Vd [3] [L/kg] | F [4] [%] | Cl/F [4] [mL/min/kg] | AUC(0-t) [4] [ng·h/mL] | half-life [4] [h] | Vd [4] [L/kg] | IC50 (PI3K (p110δ/p85α) (h)) [nM] | IC50 (PI3K (p120γ) (h)) [nM] | other results
1 | COc1ncc(-c2ccn3ncc(C#CCO)c3c2)cc1NS(=O)(=O)c1ccc(F)cc1F [Ex. 4, 2,4-difluoro-N-(5-(3-(3-hydroxyprop-1-yn-1-yl)pyrazolo[1,5-a]pyridin-5-yl)-2-methoxypyridin-3-yl)benzenesulfonamide] | 2.56 | 16.2 | 70.0 | 2.83 | 5810 | 1.11 | 0.18 | 108.5 | 1.83 | 9070 | 6.13 | 0.19 | 24.0 | 3 | 5740 | 4.64 | 0.42 | 1 | 15 | IC50 (PI3K p110α/p85α (h)): 1 nM
2 | COc1ncc(-c2ccn3ncc(C#CCO)c3n2)cc1NS(=O)(=O)c1ccc(F)cc1F [Ex. 1, 2,4-difluoro-N-(5-(3-(3-hydroxyprop-1-yn-1-yl)pyrazolo[1,5-a]pyrimidin-5-yl)-2-methoxypyridin-3-yl)benzenesulfonamide] | 2.92 | 14.2 |  |  |  |  |  |  |  |  |  |  |  |  |  |  |  | 5 | 6 | 
3 | COc1ncc(-c2ccn3ncc(C#N)c3n2)cc1NS(=O)(=O)c1ccc(F)cc1F [Ex. 2, N-(5-(3-cyanopyrazolo[1,5-a]pyrimidin-5-yl)-2-methoxypyridin-3-yl)-2,4-difluorobenzenesulfonamide] |  |  |  |  |  |  |  |  |  |  |  |  |  |  |  |  |  | 5 | 5 | T1/2 [1, 5]: ∞
4 | COc1ncc(-c2ccn3ncc(C#N)c3c2)cc1NS(=O)(=O)c1ccc(F)cc1F [Ex. 3, N-(5-(3-cyanopyrazolo[1,5-a]pyridin-5-yl)-2-methoxypyridin-3-yl)-2,4-difluorobenzenesulfonamide] | 9.59 | 4.32 | 79.3 | 0.33 | 57100 | 5.45 | 0.13 | 108.5 | 4.5 | 3670 | 0.67 | 0.23 | 59.8 | 2.67 | 5980 | 9.7 | 0.92 | 2 | 6 | 

— US9573953B2, “Heteroaromatic compounds as PI3 kinase modulators and methods of use” (CALITOR SCIENCES, LLC, priority 2013, dated 2017)
